Measured values reported in patent US9018257B2, “5-aminolevulinic acid derivatives, methods for their preparation and uses thereof” (Bar Ilan University, priority 2011, dated 2015).
pIC50: −log10 of the molar value. One block for each compound: values may come before it.

Key:
PBGD mRNA = assay: PBGD mRNA, quantitative real-time PCR, K562 cells; type: cell-based, human; conditions: 0.5 mM, after 48-96 hours
Description: (§1) Total RNA (1 μg) was primed by oligo dT and reverse-transcribed by Verso cDNA kit according to the manufacturer's protocol (Thermo Scientific, West Palm Beach, USA). Quantitative PCR was done on a Step One Plus thermocycler (Applied Byosystems, Van Allen Way, CA, USA). The comparative threshold method was used to calculate the relative gene expression. Values were normalized against glyceraldehyde 3-phosphate dehydrogenase (GAPDH) for the different genes. Real time PCR was performed with Syber Green (Kapa Biosystems, Woburn, Mass., USA) using the following primers: […]
Relative quantification of gene expression was determined by the comparative threshold method (ÄCT), as described previously (Livak K J, Schmittgen T D). Analysis of relative gene expression data using real-time quantitative PCR and the 2(−Delta Delta C(T)) Method. Expression of the Gapdh mRNA in each individual sample was used to normalize the dataset.
(§2) K562 cells are grown as described above and incubated with 0.5 mM of various compounds for 96 hours. Activity of PBGD is evaluated as described above. Expression level of the PBGD protein is evaluated using Western blot analysis (as detailed above). Expression level of PBGD mRNA are evaluated using Quantitative real-time PCR.

α-globin [1] = assay: α-globin mRNA, quantitative real-time PCR, K562 cells; type: cell-based, human; conditions: 0.5 mM, 72 hours (peak)
Description: Globin RNAs are quantified by quantitative real time polymerase chain reaction, (qRT-PCR) using SYBR I Green (Applied Biosystems). The cDNA is generated from cell culture or tissues using a PCR purification kit (Qiagen, Valencia, Calif., USA). The qRT-PCR is performed in triplicate and is repeated in at least three separate experiments.
as §1
(§3) K562 cells are grown as described above and incubated with 0.5 mM of various compounds for 96 hours. Total heme content in the cells is evaluated. In addition, a globin mRNA and protein expression levels are evaluated using Quantitative real-time PCR and Western blot analysis, respectively.

K562 cells [2] = assay: MTT viability / proliferation of K562 cells; type: cell-based, human; conditions: 96 hours
Description: Cells are grown in 24 wells plate in a volume of 0.5 mL and treated as indicated for 96 hours. Then, 77 μL of 5 mg/mL MTT (3-[4,5-dimethylthiazol-2-yl]-2,5-diphenyltetrazolium bromide, (Sigma, Israel)) is added to each well for 2 hours. Afterwards, 400 μL of DMF solution (100 gr SDS dissolved in 250 mL dd H2O with 250 mL of DMF) is added for 4 hours. Absorbance is then measured in 570 nm using a Tecan spectrophotometer (NeoTec, Canada).
To evaluate the effect of various tested compounds on cell proliferation, K562 cells were treated for 96 hours and their viability was evaluated by MTT as detailed above.

HDAC class I and II = assay: Cellular HDAC activity (Fluor de Lys) in U-251 cells; type: cell-based, human; conditions: 2 hours with substrate, read-out: IC50 of HDAC inhibition
Description: Inhibition of the activity HDAC class I and II in the cells is performed with the fluorescent kit (AK-503, Biomol, USA). The cells are seeded (10×10^3 cells/well) in 96-well plates (in quadruplicates) in growth medium for 24 hours and then treated. Incubation with the HDAC substrate (Fluor de Lys™) is for 2 hours. The reaction is terminated by the addition of Fluor de Lys™ developer and 2 μM trichostatin A (TSA). The % of inhibition is calculated from the ratio of the fluorescence (measured at 355 nm excitation and 460 nm emission) in the treated compared to the untreated control culture.
In order to test the direct effect of octanoic acid, as well as co-drugs of formula (I-a) (which comprise octanoic acid as the carboxylic acid), on the activity of cellular HDAC, the activity of HDAC is evaluated by incubating U-251 cells for 2 hours with the cell-permeable HDAC fluorometric substrate for HDAC class I and II (Fluor de Lys™), as detailed above.

K562 cells [3] = assay: PpIX synthesis in K562 cells (FACS fluorescence); type: cell-based, human; conditions: 0.5 mM, 96 hours, vs 5-ALA alone, BA alone or their mixture
Description: Following treatment, cells are harvested, collected by centrifugation, washed twice and resuspended in 0.5 mL with sterile PBS. PpIX fluorescence is measured in 10,000 cells per sample using a FACS (Becton-Dickinson, CA, USA) with an excitation wavelength of 488 nm and emission wavelength>670 nm. Images of the stained cells are examined using a fluorescent microscope (IX70) (Olympus Tokyo, Japan) using an excitation filter of 330-385 nm and barrier filter at 420 nm […] PpIX fluorescence is measured at the FL-3 channel of FACS Calibur. Additionally, pictures of cells are taken using a fluorescent microscope-Nikon TE200-E, to show PpIX fluorescence.

[4] = system: porphobilinogen deaminase (PBGD); assay: PBGD enzymatic activity assay in K562 cells; type: cell-based, human; conditions: 0.5 mM, 96 hours, vs ALA alone, BA alone or mixture
Description: K562 cells (1×10^6) are treated for 96 hours. PBGD activity is assayed as previously described by determining the fluorescence of uroporphyrin formed by the light-induced oxidation of uroporphyrinogen, which is the immediate product of the enzymatic deamination of 4 porphobilinogen molecules. In short, cells are harvested following treatment, and washed twice with PBS. After centrifugation, the pellet was resuspended in 200 μL 50 mM Tris buffer (pH 8.2) with 0.2% Triton. The cells are homogenized on ice and protein levels are quantified using the Bradford method. 400 μg protein was taken out in duplicates for incubation in 300 μL of 50 mM Tris buffer (pH 8.2) containing 0.2% Triton, with final concentration of 85 μM PBG (Sigma, Israel) for 1 hour at 37° C. The reaction is stopped by addition of 1.2 mL 15.6% TCA. […] The samples fluorescence is read using a Synergy spectrofluorometer (BioTek Instruments, VT, USA) with an excitation wavelength of 404 nm, and an emission wavelength of 595 nm. PBGD specific activity is calculated as activity percentage of control.
as §2

PBGD = PBGD protein expression, Western blot, K562 cells; type: cell-based, human; conditions: 0.5 mM, 96 hours, compared to untreated cells or cells treated with ALA
Description: (§4) Proteins are quantified and equalized using the Bradford assay (Bio-Rad, CA, USA) and resolved on a 12% polyacrylamide gel. Afterwards, proteins are transferred from the gel onto nitrocellulose membranes (Bio-Rad, CA, USA) using a semi-dry transfer apparatus (Bio-Rad, CA, USA). After blocking the membranes with phosphate-buffered saline+0.2% Tween-20 (PBST) (Sigma-Aldrich, Israel) and 5% skim-milk (BD-Diagnostic Systems, MD, USA), membranes are incubated with primary rabbit anti-human PBGD antibody (a generous gift from flemeBiotech, Sweden), or with rabbit anti-α-Hb (H80) (Santa Cruz Biotechnology, CA, USA), or with HRP-conjugated mouse anti-β-actin antibody (C4) (Santa Cruz Biotechnology, CA, USA) diluted in blocking solution for 1 h in room temperature or for overnight in 4° c., washed with PBST and incubated with secondary antibodies diluted in blocking solution. Immuno-reactive proteins were visualized with enhanced chemiluminiscence detection EZ-ECL kit (Biological Industries, Israel) used as recommended by the manufacturer.
as §2

Ferrochelatase = Ferrochelatase protein expression in K562 cells; type: cell-based, human; conditions: vs ALA, BA or their mixture
Description: K562 cells are fixed and stained with primary antibodies anti-αHb or anti-Glycophorin A and are tagged using the compatible secondary antibodies-Alexa 488-conjugated anti-rabbit antibody donkey anti-goat (Invitrogen, Oregon, USA) as recommended by Cell Signaling (MA, USA). Fluorescence is measured in 10,000 cells using FACS with an excitation wavelength of 488 nm and emission wavelength of 530 nm. K562 cells were suspended in paraformaldehyde 4% for 10 min at 37° C., followed by incubation with chilled methanol (final concentration 90%) for 30 min on ice. Cells were washed twice with PBS−/− and blocked with BSA 0.5% in PBS−/− for 10 min at room temperature. Afterwards, the cells were incubated in 50 μL of the primary antibody goat polyclonal Ferrochelatase (Santa Cruz Biotechnology, Santa Cruz, Calif., USA) or goat polyclonal glycophorin A (Santa Cruz Biotechnology, Santa Cruz, Calif., USA) (1:50 in BSA 0.5%) or anti-a Hb for 30 min at room temperature, washed once with PBS−/−, and incubated with a fluorescent donkey anti-goat IgG secondary antibody (1:1000) (Invitrogen, Carlsbad, Calif., USA) for 30 min at room temperature. The cells were washed again with PBS−/− and fluorescence was measured in 10,000 cells per sample using a FACS (Becton-Dickinson, San Jose, Calif., USA) with an excitation wavelength of 488 nm and emission wavelength 530 nm. […]

K562 cells [5] = assay: Intracellular total heme assay in K562 cells; type: cell-based, human; conditions: 0.5 mM, 96 hours, vs ALA alone, BA alone or mixture
Description: The method for quantitative determination of total heme in cell lysates is performed using hemin as a standard. The “total heme” or “endogenous heme” measured in these assays includes bound and free heme. Following treatments, 100 or 500 μg of cell lysate was added to 100 μL orthotolidine reagent (0.25 gr orthotolidine (Sigma-Aldrich, Israel) dissolved in 80 mL glacial acetic acid (Sigma-Aldrich, Israel) and 10 mL dd H2O). Heme is oxidized to a green product by adding 100 μL of 1.2% H2O2 to the mixture for 10 minutes incubation in the dark. The first oxidation product was further oxidized to a yellow product by adding 0.5 mL of a 1:9 v/v solution of diluted acetic acid. Absorbance of the second product was read at 430 nm using a spectrophotometer (Tecan Trading AG, Switzerland).
as §3

α-globin [6] = assay: α-globin protein expression, Western blot, K562 cells; type: cell-based, human; conditions: 0.5 mM, 96 hours, compared to any other treatment
Description: as §4, §3

Glycophorin A = Glycophorin A expression by flow cytometry (erythroblast differentiation); type: cell-based, human; conditions: K562 cells, 0.5 mM, 96 hours; compared to any other treatment
Description: K562 cells are fixed and stained with primary antibodies anti-αHb or anti-Glycophorin A and are tagged using the compatible secondary antibodies-Alexa 488-conjugated anti-rabbit antibody donkey anti-goat (Invitrogen, Oregon, USA) as recommended by Cell Signaling (MA, USA). Fluorescence is measured in 10,000 cells using FACS with an excitation wavelength of 488 nm and emission wavelength of 530 nm. K562 cells were suspended in paraformaldehyde 4% for 10 min at 37° C., followed by incubation with chilled methanol (final concentration 90%) for 30 min on ice. Cells were washed twice with PBS−/− and blocked with BSA 0.5% in PBS−/− for 10 min at room temperature. […] The cells were washed again with PBS−/− and fluorescence was measured in 10,000 cells per sample using a FACS (Becton-Dickinson, San Jose, Calif., USA) with an excitation wavelength of 488 nm and emission wavelength 530 nm.
K562 cells are grown as described above and incubated with 0.5 mM of various compounds for 96 hours. […] Glycophorin A content is measured using immunostaining analyzed by flow cytometry, as detailed above. […]

K562 cells [7] = assay: TEM ultrastructure of K562 cells (cellular maturation); type: cell-based, human; conditions: 96 hours
Description: Analysis is performed on bone-marrow, spleen and liver, processed as described in [17]. Briefly, cells are treated for 96 hours (hrs), harvested and fixed with Karnovsky fixative. The samples are washed in 0.1 M cacodylate buffer and fixed with 1% OsO4 in 0.1 M sodium cacodylate buffer for 1 hour (h). The samples are then dehydrated in graded ethanol solutions and propylene oxide and embedded in agar mix. Thin sections are cut, stained with uranyl acetate and lead citrate, and observed under a transmission electron microscope.
To evaluate morphologic changes associated with the effect of compound of formula (I-a) (in this example, AlaAcBu) and the ALA+HDACI (in this example, BA) mixture on K562 cells, the cells were examined by immunohystochemical experiments, as shown in FIG. 7.

Balb-c mice = assay: Doxorubicin induced anemia in mice, blood hemoglobin; type: in vivo; conditions: male Balb-c mice, Dox 4 mg/kg ip once a week + 50 mg/kg ip compound, day 19; vs Dox alone
Description: In an additional setting 8 weeks old male Balb-c mice were divided to two groups, Group 1 received 4 mg/kg ip dose of Doxorubicin (Dox) once a week and Group 2 received the same Doxorubicin treatment and in addition the mice were treated with 50 mg/kg ip dose of the tested compound three times a week. Termination was done on day 19, blood samples were drawn by retro-orbital venipuncture under anesthesia. Hemoglobin levels in heparinized whole blood were determined using Drabkints reagent and standard hemoglobin obtained from Sigma-Aldrich and prepared and stored as instructed by the manufacturer.
In vivo 8 weeks old male Balb-c mice were divided to two groups, Group 1 received 4 mg/kg ip dose of doxorubicin (Dox) once a week and Group 2 received the same Dox treatment and in addition the mice were treated with 50 mg/kg ip dose of compound of formula (I-a) (in this example, 1-(butyryloxy)ethyl-5-amino-4-oxopentanoate, (AlaAcBu)) three times a week. The experiment was terminated on day 19, blood samples were drawn by retro-orbital venipuncture under anesthesia. Hemoglobin levels in heparinized whole blood were determined using Drabkin's reagent and standard hemoglobin obtained from Sigma-Aldrich and prepared and stored as instructed by the manufacturer.

SMILES: NCC(=O)CCC(=O)O [ALA, 5-aminolevulinic acid]
PBGD mRNA level (PBGD mRNA): significantly decreased | α-globin mRNA expression, fold elevation (α-globin [1]): 2.2 fold | cell viability (MTT, mitochondria activity % of control) (K562 cells [2]): did not affect cell viability

pIC50 (HDAC class I and II): 3.30
SMILES: CCCCCCCC(=O)O [octanoic acid]

SMILES: CCCC(=O)OC(C)OC(=O)CCC(=O)CN (stereo not drawn) [AlaAcBu, 1-(butyryloxy)ethyl 5-amino-4-oxopentanoate]
intensity of the fluorescence generated by PpIX (K562 cells [3]): substantially higher | relative activity of PGBD compared to control [4]: higher | expression levels of PGBD (protein, Western blot) (PBGD): increased similarly | Ferrochelatase protein expression (Ferrochelatase): significantly higher level | fold increase in total heme content (K562 cells [5]): higher | α-globin mRNA expression, fold elevation (α-globin [1]): 11.3 fold | protein expression levels of α-globin (α-globin [6]): markedly elevated | relative expression of Glycophorin A (percentage of control) (Glycophorin A): highest increase | inhibition of cell proliferation (MTT) (K562 cells [2]): 33% | ultrastructural changes identified by TEM (K562 cells [7]): chromatin condensation, cytosolic hemoglobinization | hemoglobin level in blood (Balb-c mice): ameliorate the Dox-induced suppression of erythropoiesis

SMILES: CCCC(=O)O [BA, butyric acid]
expression levels of PGBD (protein, Western blot) (PBGD): increased similarly | α-globin mRNA expression, fold elevation (α-globin [1]): 9.1 fold | cell viability (MTT, mitochondria activity % of control) (K562 cells [2]): even increased it
